Molecular target: GST-Xa-hAAK1 (Homo sapiens (Human), UniProt Q2M2I8)
Assay: AAK1 Kinase Assay
Assay type: biochemical
Settings: ATP 22 μM, 3 hours at room temperature

Chain of GST-Xa-hAAK1 (Q2M2I8 whole entry): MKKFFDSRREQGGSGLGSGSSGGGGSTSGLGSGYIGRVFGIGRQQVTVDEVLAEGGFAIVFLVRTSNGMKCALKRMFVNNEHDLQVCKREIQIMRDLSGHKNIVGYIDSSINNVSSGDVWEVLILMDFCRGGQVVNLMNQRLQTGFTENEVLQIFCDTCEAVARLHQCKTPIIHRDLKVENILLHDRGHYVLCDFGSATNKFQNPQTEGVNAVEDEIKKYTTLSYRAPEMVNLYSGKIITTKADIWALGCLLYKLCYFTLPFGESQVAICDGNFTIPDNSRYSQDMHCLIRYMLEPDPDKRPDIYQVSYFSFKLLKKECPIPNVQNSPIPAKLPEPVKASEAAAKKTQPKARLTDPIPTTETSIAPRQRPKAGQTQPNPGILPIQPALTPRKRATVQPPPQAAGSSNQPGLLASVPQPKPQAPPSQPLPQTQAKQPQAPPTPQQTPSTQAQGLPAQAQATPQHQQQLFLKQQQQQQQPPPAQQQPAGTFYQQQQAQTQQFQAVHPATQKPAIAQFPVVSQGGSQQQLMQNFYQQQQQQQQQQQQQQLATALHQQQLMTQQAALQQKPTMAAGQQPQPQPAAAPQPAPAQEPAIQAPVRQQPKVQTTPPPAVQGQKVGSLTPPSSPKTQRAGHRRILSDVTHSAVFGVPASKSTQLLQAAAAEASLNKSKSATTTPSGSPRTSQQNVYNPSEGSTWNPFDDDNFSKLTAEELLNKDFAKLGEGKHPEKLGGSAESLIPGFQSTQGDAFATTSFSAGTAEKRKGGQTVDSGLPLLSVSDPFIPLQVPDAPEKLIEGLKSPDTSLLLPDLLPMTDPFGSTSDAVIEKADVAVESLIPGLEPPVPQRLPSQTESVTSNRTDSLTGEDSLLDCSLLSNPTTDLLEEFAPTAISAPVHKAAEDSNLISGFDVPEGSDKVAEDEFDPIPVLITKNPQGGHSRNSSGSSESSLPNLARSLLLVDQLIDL

Row | SMILES | IC50 | IC50 (listed as IC50 ranges)
1 | Cc1ccn2ncnc(Nc3cccc(-c4nnc(C(C)C)s4)c3)c12 [Example 87, N-(3-(5-isopropyl-1,3,4-thiadiazol-2-yl)phenyl)-5-methylpyrrolo[2,1-f][1,2,4]triazin-4-amine] | 0.325 µM | –
2 | CC(C)c1nc(-c2ccc(F)c(Nc3ncnn4ccc(CN5CCC(N)CC5)c34)c2)no1 [Example 52, 5-((4-aminopiperidin-1-yl)methyl)-N-(2-fluoro-5-(5-isopropyl-1,2,4-oxadiazol-3-yl)phenyl)pyrrolo[2,1-f][1,2,4]triazin-4-amine] | – | 0.1 to 1 µM
3 | NC1CCN(Cc2ccn3ncnc(Nc4cccc(-c5csnn5)c4)c23)CC1 [Example 14, N-(3-(1,2,3-thiadiazol-4-yl)phenyl)-5-((4-aminopiperidin-1-yl)methyl)pyrrolo[2,1-f][1,2,4]triazin-4-amine] | – | 0.1 to 1 µM
4 | CC(=O)NC1CCN(Cc2ccn3ncnc(Nc4cccc(-c5nnc(C(C)C)s5)c4)c23)CC1 [Example 53, N-(1-((4-((3-(5-isopropyl-1,3,4-thiadiazol-2-yl)phenyl)amino)pyrrolo[2,1-f][1,2,4]triazin-5-yl)methyl)piperidin-4-yl)acetamide] | – | 0.01 to 0.1 µM
5 | COC(=O)c1cn2ncnc(Nc3cccc(-c4nnn(C(C)C)n4)c3)c2c1CN1CCC(N)CC1 [Example 111, methyl 5-((4-aminopiperidin-1-yl)methyl)-4-((3-(2-isopropyl-2H-tetrazol-5-yl)phenyl)amino)pyrrolo[2,1-f][1,2,4]triazine-6-carboxylate] | 0.016 µM | –
6 | CCOC(=O)c1ccn2ncnc(Nc3cccc(-c4nnc(C(C)C)s4)c3)c12 [Example 94, ethyl 4-((3-(5-isopropyl-1,3,4-thiadiazol-2-yl)phenyl)amino)pyrrolo[2,1-f][1,2,4]triazine-5-carboxylate] | 0.474 µM | –
7 | CC(C)n1nnc(-c2cccc(NCc3ccn4ncnc(Nc5cccc(-c6nnn(C(C)C)n6)c5)c34)c2)n1 [Example 61, N-(3-(2-isopropyl-2H-tetrazol-5-yl)phenyl)-5-(((3-(2-isopropyl-2H-tetrazol-5-yl)phenyl)amino)methyl)pyrrolo[2,1-f][1,2,4]triazin-4-amine] | 2.58 µM | –
8 | CNC1CCN(Cc2ccn3ncnc(Nc4cc(F)cc(-c5noc(C(C)C)n5)c4)c23)CC1 [Example 44, N-(3-fluoro-5-(5-isopropyl-1,2,4-oxadiazol-3-yl)phenyl)-5-((4-(methylamino)piperidin-1-yl)methyl)pyrrolo[2,1-f][1,2,4]triazin-4-amine] | 0.01 µM | –
9 | CC(C)n1nnc(-c2cccc(Nc3ncnn4ccc(CN)c34)c2)n1 [Example 99, 5-(aminomethyl)-N-(3-(2-isopropyl-2H-tetrazol-5-yl)phenyl)pyrrolo[2,1-f][1,2,4]triazin-4-amine] | 0.217 µM | –
10 | CC(C)n1nnc(-c2cccc(Nc3ncnn4ccc(CN5CCNCC5)c34)c2)n1 [Example 34, N-(3-(2-isopropyl-2H-tetrazol-5-yl)phenyl)-5-(piperazin-1-ylmethyl)pyrrolo[2,1-f][1,2,4]triazin-4-amine] | – | 0.01 to 0.1 µM
11 | CNC1CCN(Cc2ccn3ncnc(Nc4cccc(-c5nnn(C(C)C)n5)c4)c23)CC1 [Example 42, N-(3-(2-isopropyl-2H-tetrazol-5-yl)phenyl)-5-((4-(methylamino)piperidin-1-yl)methyl)pyrrolo[2,1-f][1,2,4]triazin-4-amine] | – | 0.01 to 0.1 µM
12 | CNC1CCN(Cc2ccn3ncnc(Nc4cccc(-c5noc(C(C)C)n5)c4)c23)CC1 [Example 39, N-(3-(5-isopropyl-1,2,4-oxadiazol-3-yl)phenyl)-5-((4-(methylamino)piperidin-1-yl)methyl)pyrrolo[2,1-f][1,2,4]triazin-4-amine] | – | 0.01 to 0.1 µM
13 | CCOC(=O)c1ccn2ncnc(Nc3cccc(-c4nnn(C(C)C)n4)c3)c12 [Example 96, ethyl 4-((3-(2-isopropyl-2H-tetrazol-5-yl)phenyl)amino)pyrrolo[2,1-f][1,2,4]triazine-5-carboxylate] | 0.624 µM | –
14 | CC(C)c1nc(-c2cccc(Nc3ncnn4cccc34)c2)no1 [Example 77, N-(3-(5-isopropyl-1,2,4-oxadiazol-3-yl)phenyl)pyrrolo[2,1-f][1,2,4]triazin-4-amine] | 0.291 µM | –
15 | CC(C)c1nc(-c2cccc(Nc3ncnn4ccc(CN5CCC(N)CC5)c34)c2)no1 [Example 2, 5-((4-aminopiperidin-1-yl)methyl)-N-(3-(5-isopropyl-1,2,4-oxadiazol-3-yl)phenyl)pyrrolo[2,1-f][1,2,4]triazin-4-amine] | – | 0.01 to 0.1 µM
16 | CC(C)(CN)c1nc(-c2cccc(Nc3ncnn4cccc34)c2)no1 [Example 82, N-(3-(5-(1-amino-2-methylpropan-2-yl)-1,2,4-oxadiazol-3-yl)phenyl)pyrrolo[2,1-f][1,2,4]triazin-4-amine] | 0.067 µM | –
17 | CC(C)c1nc(-c2ccc(O)c(Nc3ncnn4ccc(CN5CCC(N)CC5)c34)c2)no1 [Example 3, 2-((5-((4-aminopiperidin-1-yl)methyl)pyrrolo[2,1-f][1,2,4]triazin-4-yl)amino)-4-(5-isopropyl-1,2,4-oxadiazol-3-yl)phenol] | – | 0.01 to 0.1 µM

Row | SMILES | IC50 | IC50 (listed as IC50 ranges)
18 | CC(C)n1nnc(-c2cccc(Nc3ncnn4ccc(CN5[C@@H]6CC[C@H]5CN(C)C6)c34)c2)n1 [Example 60, N-(3-(2-isopropyl-2H-tetrazol-5-yl)phenyl)-5-(((1R,5S)-3-methyl-3,8-diazabicyclo[3.2.1]octan-8-yl)methyl)pyrrolo[2,1-f][1,2,4]triazin-4-amine] | – | 0.1 to 1 µM
19 | CC(C)(CCl)c1nc(-c2cccc(Nc3ncnn4cccc34)c2)no1 [Example 78, N-(3-(5-(1-chloro-2-methylpropan-2-yl)-1,2,4-oxadiazol-3-yl)phenyl)pyrrolo[2,1-f][1,2,4]triazin-4-amine] | 0.112 µM | –
20 | CC(C)n1nnc(-c2ccc(F)c(Nc3ncnn4ccc(CN5CCC(N)CC5)c34)c2)n1 [Example 50, 5-((4-aminopiperidin-1-yl)methyl)-N-(2-fluoro-5-(2-isopropyl-2H-tetrazol-5-yl)phenyl)pyrrolo[2,1-f][1,2,4]triazin-4-amine] | – | 0.1 to 1 µM
21 | c1cc(Nc2ncnn3ccc(CN4CC5CNCC5C4)c23)cc(-c2nnc(C3CC3)s2)c1 (stereo not shown) [Example 26, N-(3-(5-cyclopropyl-1,3,4-thiadiazol-2-yl)phenyl)-5-((hexahydropyrrolo[3,4-c]pyrrol-2(1H)-yl)methyl)pyrrolo[2,1-f][1,2,4]triazin-4-amine] | – | 0.1 to 1 µM
22 | CC(C)c1nc(-c2ccc(Cl)c(Nc3ncnn4ccc(CN5CCC(N)CC5)c34)c2)no1 [Example 43, 5-((4-aminopiperidin-1-yl)methyl)-N-(2-chloro-5-(5-isopropyl-1,2,4-oxadiazol-3-yl)phenyl)pyrrolo[2,1-f][1,2,4]triazin-4-amine] | 0.265 µM | –
23 | CC(C)(CO)c1nc(-c2cccc(Nc3ncnn4ccc(CN5CCC(N)CC5)c34)c2)no1 [Example 10, 2-(3-(3-((5-((4-aminopiperidin-1-yl)methyl)pyrrolo[2,1-f][1,2,4]triazin-4-yl)amino)phenyl)-1,2,4-oxadiazol-5-yl)-2-methylpropan-1-ol] | – | 0.01 to 0.1 µM
24 | CC(C)n1nnc(-c2cc(O)cc(Nc3ncnn4cccc34)c2)n1 [Example 84, 3-(2-isopropyl-2H-tetrazol-5-yl)-5-(pyrrolo[2,1-f][1,2,4]triazin-4-ylamino)phenol] | 0.075 µM | –
25 | CCCc1nnc(-c2cccc(Nc3ncnn4ccc(CN5CCC(N)CC5)c34)c2)s1 [Example 21, 5-((4-aminopiperidin-1-yl)methyl)-N-(3-(5-propyl-1,3,4-thiadiazol-2-yl)phenyl)pyrrolo[2,1-f][1,2,4]triazin-4-amine] | – | 0.01 to 0.1 µM
26 | CNC1CCN(Cc2ccn3ncnc(Nc4cccc(-c5nnc(C(C)C)s5)c4)c23)CC1 [Example 27, N-(3-(5-isopropyl-1,3,4-thiadiazol-2-yl)phenyl)-5-((4-(methylamino)piperidin-1-yl)methyl)pyrrolo[2,1-f][1,2,4]triazin-4-amine] | – | 0.1 to 1 µM
27 | NC1CCN(Cc2ccn3ncnc(Nc4cccc(-c5noc(C6CC6)n5)c4)c23)CC1 [Example 47, 5-((4-aminopiperidin-1-yl)methyl)-N-(3-(5-cyclopropyl-1,2,4-oxadiazol-3-yl)phenyl)pyrrolo[2,1-f][1,2,4]triazin-4-amine] | – | 0.01 to 0.1 µM
28 | NC1CCN(Cc2ccn3ncnc(Nc4cccc(-c5nc(-c6ccccc6)no5)c4)c23)CC1 [Example 16, 5-((4-aminopiperidin-1-yl)methyl)-N-(3-(3-phenyl-1,2,4-oxadiazol-5-yl)phenyl)pyrrolo[2,1-f][1,2,4]triazin-4-amine] | – | 0.1 to 1 µM
29 | CC(C)n1nnc(-c2cccc(Nc3ncnn4ccc(CN5CC(C#N)C5)c34)c2)n1 [Example 64, 1-((4-((3-(2-isopropyl-2H-tetrazol-5-yl)phenyl)amino)pyrrolo[2,1-f][1,2,4]triazin-5-yl)methyl)azetidine-3-carbonitrile] | – | 0.1 to 1 µM
30 | CC(C)n1nnc(-c2cc(Nc3ncnn4ccc(CN5CCC(N)CC5)c34)c3[nH]ccc3c2)n1 [Example 74, 5-((4-aminopiperidin-1-yl)methyl)-N-(5-(2-isopropyl-2H-tetrazol-5-yl)-1H-indol-7-yl)pyrrolo[2,1-f][1,2,4]triazin-4-amine] | – | 0.01 to 0.1 µM
31 | CC(C)c1nc(-c2cc(Cl)cc(Nc3ncnn4ccc(CN5CCC(N)CC5)c34)c2)no1 [Example 45, 5-((4-aminopiperidin-1-yl)methyl)-N-(3-chloro-5-(5-isopropyl-1,2,4-oxadiazol-3-yl)phenyl)pyrrolo[2,1-f][1,2,4]triazin-4-amine] | – | 0.01 to 0.1 µM
32 | Cc1ccn2ncnc(Nc3cccc(-c4noc(C(C)(C)CCl)n4)c3)c12 [Example 90, N-(3-(5-(1-chloro-2-methylpropan-2-yl)-1,2,4-oxadiazol-3-yl)phenyl)-5-methylpyrrolo[2,1-f][1,2,4]triazin-4-amine] | 0.052 µM | –
33 | CC(C)n1nnc(-c2cccc(Nc3ncnn4ccc(C(=O)N(C)C)c34)c2)n1 [Example 101, 4-((3-(2-isopropyl-2H-tetrazol-5-yl)phenyl)amino)-N,N-dimethylpyrrolo[2,1-f][1,2,4]triazine-5-carboxamide] | 0.687 µM | –
34 | CC(C)n1nnc(-c2cc(CO)cc(Nc3ncnn4cccc34)c2)n1 [Example 83, (3-(2-isopropyl-2H-tetrazol-5-yl)-5-(pyrrolo[2,1-f][1,2,4]triazin-4-ylamino)phenyl)methanol] | 0.406 µM | –

From patent US9737542B2, “Pyrrolotriazine kinase inhibitors” (BRISTOL-MYERS SQUIBB COMPANY, priority 2013, dated 2017)
